Test results: patent publication US7495027B2, “3-aryl-4-hydroxyfuranone compounds and the human and animal health use thereof” (Wyeth, priority 2003, dated 2009)
In brackets after ≈: the same amount, converted by molar mass. Like-named read-outs stand apart in the source and are kept apart here.

Tests used:
[1] = test system: enterococci; assay: Minimum inhibitory concentration, microdilution broth method, enterococci; format: cell-based; conditions: Mueller-Hinton broth, 18-22 hours at 35° C.; for MIC: Enterococcus faecalis
Procedure, shortened: (§1)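 Recent clinical isolates, some resistant to methicillin, penicillin and/or vancomycin, were tested by the broth microdilution method of NCCLS Approved Standard M7-A5 2000. Mueller-Hinton broth served for staphylococci and enterococci, while streptococci received the same broth supplemented with 5% horse blood.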

[2] = test system: Streptococci; assay: Minimum inhibitory concentration, microdilution broth method, streptococci; format: cell-based; conditions: Mueller-Hinton broth with 5% horse blood, 18-22 hours at 35° C.; for MIC: S. pneumo GC 1894
Procedure, shortened: as §1

[3] = target: T1, S. aureus Uridine-diphosphate-N-acetylmuramoyl-L-alanine: D-glutamate liease, MurD (Staphylococcus aureus, UniProt Q2FZ92); assay: biochemical; conditions: (S) S. aureus enzyme
T1 sequence (Q2FZ92 1-449): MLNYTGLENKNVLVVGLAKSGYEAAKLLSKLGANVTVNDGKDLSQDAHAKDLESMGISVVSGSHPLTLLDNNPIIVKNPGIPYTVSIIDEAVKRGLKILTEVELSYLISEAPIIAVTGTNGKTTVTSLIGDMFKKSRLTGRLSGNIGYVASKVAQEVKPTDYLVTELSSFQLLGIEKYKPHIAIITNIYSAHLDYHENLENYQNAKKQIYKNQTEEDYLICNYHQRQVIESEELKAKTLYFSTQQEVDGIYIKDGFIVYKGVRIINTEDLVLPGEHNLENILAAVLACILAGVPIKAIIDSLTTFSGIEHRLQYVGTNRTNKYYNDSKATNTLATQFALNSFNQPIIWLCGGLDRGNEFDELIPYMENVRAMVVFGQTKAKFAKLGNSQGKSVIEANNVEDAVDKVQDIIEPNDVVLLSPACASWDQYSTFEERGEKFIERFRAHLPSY
Procedure, shortened: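 MurD, which catalyses the fourth step of cell wall biosynthesis, was tested for inhibition by compounds. Compounds were made up as 10 mg/mL DMSO stocks and diluted to 100 μg/mL in 50 mM Tris/HCl, pH 8.5.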

[4] = target: E. coli Uridine-diphosphate-N-acetylmuramoyl-L-alanine: D-glutamate liease, MurD (Escherichia coli, UniProt P14900); assay: biochemical; conditions: (E) E. coli enzyme
Procedure, shortened: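 Final buffer 83 mM Tris/HCl pH 8.0, 50 mM MgCl2, 2 mM ATP. Compounds from 10 mg/mL DMSO stocks diluted to 100 μg/mL in 50 mM Tris/HCl pH 8.5 (working solution, not final assay level).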

[5] = target: E. coli Uridine-diphosphate-N-acetvimuramoyl: L-alanine lipase, MurC (Escherichia coli, UniProt P17952); assay: Inhibitory activity against MurC (E. coli); format: biochemical; conditions: (E) E. coli enzyme; read-out: MurC IC50 (converted)
[6] = target: E. coli UDP-N-acetylglucosamine enolpyruvoyl transferase, MurA (Escherichia coli, UniProt P0A749); assay: biochemical; conditions: (E) E. coli enzyme
Procedure, shortened: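 Compound in DMSO/water pre-incubated 10 min at 37° C with enzyme in 50 mM Tris/HCl pH 8.0, 5 mM DTT, 20% glycerol. After Tris/BME and assay buffer were added, OD340 was read at start. Reaction ran 1 hr at 37° C, then stop solution was added with 30 min colour development.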

[7] = target: E. coli Enopyruvyl-UPD-N-acetylglucosamine reductase, Mur B (Escherichia coli, UniProt P08373); assay: biochemical; conditions: (E) E. coli enzyme; read-out: MurB IC50 (converted)
[8] = test system: staphylococci; assay: Minimum inhibitory concentration, microdilution broth method, staphylococci; format: cell-based; conditions: Mueller-Hinton broth, 18-22 hours at 35° C.; for MIC: Staphylococcus aureus
Procedure, shortened: as §1

[9] = Toxicity in treated gerbils (deaths or significant weight loss); format: in vivo; parameters: key: +: Toxicity is indicated for those groups having one or more animals expired; conditions: single oral dose of 50 mg/kg, groups of 3
Description: In this evaluation, gerbils are infected with Trichostrongylus columbriformis infective larvae at a concentration of approximately 800 L3/mL. Larvae for gerbil infections are cultured from feces from sheep previously infected with T. colubriformis. One week post infection, test compounds are administered by gavage as a single oral dose of 50 mg/kg of body weight. For each group of 3 gerbils, 10 mg of test compound are dissolved in 2 mL of PEG 400:DMSO (1:2 v/v) and each animal is administered the test solution at a rate of 0.1 mL/10 g of body weight. […] All animals are observed daily for morbidity and mortality. Four days post-treatment, all animals are weighed and necropsied. Worm counts are conducted with the use of stereoscopes and counters.

[10] = test system: Trichostrongylus columbriformis; assay: In vivo efficacy against T. colubriformis in infected gerbils; conditions: gerbils infected with T. colubriformis; single oral dose of 50 mg/kg by gavage; worm counts four days post-treatment; % mortality as compared to negative control
Procedure, shortened: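 Gerbils infected with ~800 L3/mL larvae were treated one week later by gavage with a single 50 mg/kg oral dose in PEG 400:DMSO (1:2 v/v), 3 animals per group. Necropsy four days post-treatment, with worms counted under stereoscopes.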

[11] = E. faecalis GC 2242, read-out: MIC E. faecalis GC 2242
[12] = E. faecalis GC 4555, read-out: MIC E. faecalis GC 4555
[13] = S. aureus GC 1131, read-out: MIC S. aureus GC 1131
[14] = S. aureus GC 4543, read-out: MIC S. aureus GC 4543

Chain of E. coli Uridine-diphosphate-N-acetylmuramoyl-L-alanine: D-glutamate liease, MurD (P14900 whole entry): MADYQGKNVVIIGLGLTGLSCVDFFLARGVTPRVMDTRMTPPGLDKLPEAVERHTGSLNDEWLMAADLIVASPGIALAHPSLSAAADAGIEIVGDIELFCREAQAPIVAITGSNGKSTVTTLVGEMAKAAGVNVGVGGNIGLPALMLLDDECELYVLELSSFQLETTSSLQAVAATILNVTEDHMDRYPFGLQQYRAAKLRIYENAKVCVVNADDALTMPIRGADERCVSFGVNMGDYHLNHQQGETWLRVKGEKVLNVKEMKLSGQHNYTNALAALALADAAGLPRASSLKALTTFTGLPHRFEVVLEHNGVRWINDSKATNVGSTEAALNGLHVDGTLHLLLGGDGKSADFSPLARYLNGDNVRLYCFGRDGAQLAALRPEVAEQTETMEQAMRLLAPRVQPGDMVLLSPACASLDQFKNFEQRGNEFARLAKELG
Chain of E. coli Enopyruvyl-UPD-N-acetylglucosamine reductase, Mur B (P08373 whole entry): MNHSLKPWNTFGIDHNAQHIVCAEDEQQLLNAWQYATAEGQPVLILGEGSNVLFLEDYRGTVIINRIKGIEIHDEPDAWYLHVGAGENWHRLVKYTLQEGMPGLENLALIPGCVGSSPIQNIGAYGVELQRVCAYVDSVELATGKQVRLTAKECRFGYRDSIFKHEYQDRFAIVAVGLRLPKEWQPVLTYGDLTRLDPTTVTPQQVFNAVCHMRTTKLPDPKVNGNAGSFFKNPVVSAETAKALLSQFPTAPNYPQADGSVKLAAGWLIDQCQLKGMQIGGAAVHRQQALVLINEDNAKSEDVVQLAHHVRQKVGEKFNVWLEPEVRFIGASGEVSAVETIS
Chain of E. coli Uridine-diphosphate-N-acetvimuramoyl: L-alanine lipase, MurC (P17952 whole entry): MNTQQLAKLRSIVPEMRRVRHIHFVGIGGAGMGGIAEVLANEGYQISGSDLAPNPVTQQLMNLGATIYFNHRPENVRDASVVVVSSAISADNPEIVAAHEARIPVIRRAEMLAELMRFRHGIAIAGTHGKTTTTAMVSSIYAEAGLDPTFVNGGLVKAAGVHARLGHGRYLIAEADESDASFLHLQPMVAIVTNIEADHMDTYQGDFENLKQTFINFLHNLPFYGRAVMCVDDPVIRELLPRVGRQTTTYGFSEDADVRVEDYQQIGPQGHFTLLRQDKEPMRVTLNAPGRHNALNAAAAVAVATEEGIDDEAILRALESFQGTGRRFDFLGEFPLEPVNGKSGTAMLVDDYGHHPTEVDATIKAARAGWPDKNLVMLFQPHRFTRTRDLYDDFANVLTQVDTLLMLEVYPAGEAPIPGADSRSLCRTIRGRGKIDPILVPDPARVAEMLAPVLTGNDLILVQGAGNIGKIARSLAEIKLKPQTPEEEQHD
Chain of E. coli UDP-N-acetylglucosamine enolpyruvoyl transferase, MurA (P0A749 whole entry): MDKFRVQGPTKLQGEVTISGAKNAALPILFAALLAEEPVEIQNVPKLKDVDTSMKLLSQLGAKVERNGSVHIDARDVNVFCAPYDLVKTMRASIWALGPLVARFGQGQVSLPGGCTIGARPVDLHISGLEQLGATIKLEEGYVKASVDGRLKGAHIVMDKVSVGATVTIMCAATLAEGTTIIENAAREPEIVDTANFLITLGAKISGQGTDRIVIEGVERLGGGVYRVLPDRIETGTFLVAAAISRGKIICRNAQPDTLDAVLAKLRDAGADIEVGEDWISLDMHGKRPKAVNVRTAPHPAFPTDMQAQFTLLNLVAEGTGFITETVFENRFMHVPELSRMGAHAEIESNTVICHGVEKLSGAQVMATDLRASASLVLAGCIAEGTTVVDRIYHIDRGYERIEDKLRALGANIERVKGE

SMILES	MIC [1, 11]	MIC [1, 12]	MIC [2]	IC50 [3]	IC50 [4]	IC50 [5]	IC50 [6]	IC50 [7]	melting point	MIC [8, 13]	MIC [8, 14]	Toxicity [9]	Mortality [10]	also measured
O=C1O/C(=C\c2ccc(-c3ccccc3)cc2)C(O)=C1c1ccc(Cl)c(Cl)c1 [Example 66]	0.5 µg/mL (≈ 1.22 µM)	2 µg/mL (≈ 4.89 µM)	< 0.125 µg/mL	12.2 µM	51.3 µM	7.33 µM	7.33 µM	4.89 µM	265 to 269 °C	2 µg/mL (≈ 4.89 µM)	1 µg/mL (≈ 2.44 µM)	–	–	–
O=C1O/C(=C\c2ccc(-c3ccccc3)cc2)C(O)=C1c1cc(Cl)cc(Cl)c1 [Example 68]	–	–	–	26.9 µM	26.9 µM	22 µM	7.33 µM	7.33 µM	232 to 235 °C	–	–	–	–	MIC E. faecalis GC 2242 ([1]; E. faecalis GC 2242): 1 µg/mL (≈ 2.44 µM); MIC E. faecalis GC 4555 ([1]; E. faecalis GC 4555): 2 µg/mL (≈ 4.89 µM); MIC S. pneumo GC 1894 [2]: <0.125 µg/mL; MIC S. aureus GC 1131 ([8]; S. aureus GC 1131): 2 µg/mL (≈ 4.89 µM); MIC S. aureus GC 4543 ([8]; S. aureus GC 4543): 2 µg/mL (≈ 4.89 µM)
O=C1O/C(=C\c2ccc3ccccc3c2)C(O)=C1c1ccc(-c2ccccc2)cc1 [Example 103]	32 µg/mL (≈ 82 µM)	64 µg/mL (≈ 164 µM)	0.5 µg/mL (≈ 1.28 µM)	–	> 64 µM	41 µM	> 64 µM	15.4 µM	266 to 270 °C	> 128 µg/mL	64 µg/mL (≈ 164 µM)	–	–	–
O=C1O/C(=C\c2ccccc2C(F)(F)F)C(O)=C1c1ccc(-c2ccccc2)c(F)c1 [Example 107]	2 µg/mL (≈ 4.69 µM)	8 µg/mL (≈ 18.8 µM)	0.25 µg/mL (≈ 0.586 µM)	39.9 µM	> 58.6 µM	14.1 µM	32.8 µM	9.38 µM	224 to 228 °C	4 µg/mL (≈ 9.38 µM)	2 µg/mL (≈ 4.69 µM)	–	–	–
O=C1O/C(=C\c2cccc(C(F)(F)F)c2)C(O)=C1c1cccc(-c2ccccc2)c1 [Example 108]	2 µg/mL (≈ 4.9 µM)	8 µg/mL (≈ 19.6 µM)	1 µg/mL (≈ 2.45 µM)	36.7 µM	> 61.2 µM	14.7 µM	46.5 µM	24.5 µM	210 to 212 °C	2 µg/mL (≈ 4.9 µM)	2 µg/mL (≈ 4.9 µM)	–	–	–
N#Cc1ccc(C2=C(O)C(=Cc3ccc(-c4ccc(Cl)cc4)cc3)OC2=O)cc1 [R=H; R1=4-CN—C6H4; R2=4-(4′-Cl-biphenyl)]	–	–	–	–	–	–	–	–	–	–	–	+	64.33%	–
N#Cc1ccc(C2=C(O)/C(=C/c3ccc(-c4ccc(C#N)cc4)cc3)OC2=O)cc1 [R=H; R1=4-CN—C6H4; R2=4-(4′CN-biphenyl)]	–	–	–	–	–	–	–	–	–	–	–	+	88.60%	–
N#Cc1ccc(/C=C2\OC(=O)C(c3ccc(C#N)cc3)=C2O)cc1 [R=H; R1=4-CN—C6H4; R2=4-CN—C6H4]	–	–	–	–	–	–	–	–	–	–	–	+	62.43%	–
N#Cc1ccc(C2=C(O)C(=Cc3ccc(Cl)cc3)OC2=O)cc1 [R=H; R1=4-CN—C6H4; R2=4-Cl—C6H4]	–	–	–	–	–	–	–	–	–	–	–	+	90.20%	–
N#Cc1ccc(/C=C2\OC(=O)C(c3ccc(Cl)cc3)=C2O)cc1 [R=H; R1=4-Cl—C6H4; R2=4-CN—06H4]	–	–	–	–	–	–	–	–	–	–	–	+	84.54%	–
O=C1O/C(=C\c2ccc(-c3ccccc3)cc2)C(O)=C1c1ccc(Cl)cc1 [R=H; R1=4-Cl—C6H4; R2=4-biphenyl]	–	–	–	–	–	–	–	–	–	–	–	+	33.10%	–
